Measurements reported in US7432369B2, “Pyridyl-substituted porphyrin compounds and methods of use thereof” (Inotek Pharmaceuticals Corporation, priority 2004, dated 2008).

Key:
[1] = test system: rats subjected to myocardial infarction; assay: Myocardial infarction by occlusion and reperfusion of the left anterior descending coronary artery; type: in vivo, rat; details: 5 minutes prior to reperfusion
Description: Rats were subjected to myocardial infarction by occlusion and reperfusion of the left anterior descending coronary artery as previously described in C. Y. Xiao et al., J Pharmacol Exp Ther., August 2004;310(2):498-504. Compound 3 was administered at doses of 1, 3, or 6 mg/kg i.v., 5 minutes prior to reperfusion.

[2] = test system: mice subjected to heart failure; assay: Heart failure induced by aortic banding; type: in vivo; details: 3 mg/kg/day orally
Description: Mice were subjected to heart failure induced by aortic banding as previously described in C. Y. Xiao et al., J Pharmacol Exp Ther., March 2005;312(3):891-8. Compound 3 was administered at a dose of 3 mg/kg/day orally.

[3] = test system: rats subjected to balloon-induced vascular injury; assay: Balloon-induced vascular injury of the carotid artery; type: in vivo, rat; details: 1 mg/kg bid
Description: Rats were subjected to balloon-induced vascular injury of the carotid artery as previously described in C. Zhang et al., Am J Physiol Heart Circ Physiol., August 2004;287(2):H659-66.

[4] = test system: mice subjected to streptozocin diabetes; assay: Multiple low dose streptozocin diabetes; type: in vivo; details: 3 or 10 mg/kg/day ip
Description: Mice were subjected to multiple low dose streptozocin diabetes as previously described in J. G. Mabley et al., Br J Pharmacol., July 2001;133(6):909-19.

RAW murine macrophages = assay: Oxidant or free-radical damage, cell viability (mitochondrial respiration); type: cell-based; details: RAW cells treated with oxidants and free radicals
Description: (§1) The four right-hand most bar graphs represent cytotoxin plus […] of Compound 3.
(§2) A549 human epithelial cells and RAW murine macrophages were grown and cultured, then treated with oxidants and free radicals in the presence or absence of varying concentrations of Compound 3 according to the method of C. Szabo et al., Mol Med., October 2002;8(10):571-80. […] Protection is by 3-100 μM of Compound 3.

[5] = test system: A549 human epithelial cells; assay: as above; type: cell-based; details: A549 cells treated with oxidants and free radicals
Description: as §1, §2

[6] = test system: rats subjected to hemorrhagic shock; assay: Hemorrhagic shock and resuscitation; type: in vivo, rat; details: 6 mg/kg i.v., 5 minutes prior to resuscitation
Description: Rats were subjected to 2 hours of hemorrhage, followed by resuscitation as previously described in O. V. Evgenov et al., Crit Care Med., October 2003;31(10):2429-36. Compound 3 was administered at a dose of 6 mg/kg i.v., 5 minutes prior to resuscitation. […] To obtain the results shown in FIG. 7, rats were bled to reach mean BP of 40 mm Hg. This mean BP was maintained for 2 hours, followed by resuscitation with saline at a volume of 2× the shed blood volume. Rats were then observed for 3 hours, and the survival time was recorded. Compound 3 (6 mg/kg) was administered intravenously before the start of resuscitation. To obtain the results shown in FIG. 8, left intraventricular systolic pressure (LVSP), dP/dt, -dP/dt were monitored continuously for 20 minutes from 40 minutes after resuscitation. Compound 3 (6 mg/kg) was administered intravenously before the start of resuscitation. To obtain the results shown in FIG. 9, blood was taken 1 hour after resuscitation. Compound 3 (6 mg/kg) was administered intravenously before the start of resuscitation. To obtain the results shown in FIG. 10, blood was taken at 1 hour after resuscitation. Compound 3 (6 mg/kg) was administered intravenously before the start of resuscitation.

[7] = test system: rats subjected to heterotopic heart transplantation; assay: Heterotopic heart transplantation; type: in vivo, rat; details: 10 mg/kg/day orally
Description: Rats were subjected to heterotopic heart transplantation as described previously in H. Jiang et al., Transplantation, Jun. 15, 2002;73(11):1808-17. Compound 3 was administered at a dose of 10 mg/kg/day orally.

O=C([O-])c1ccc(C[n+]2ccccc2/C2=C3\C=CC(=N3)/C(c3cccc[n+]3Cc3ccc(C(=O)[O-])cc3)=c3/cc/c4[n]3[Fe]([Cl])[n]3c2ccc3/C(c2cccc[n+]2Cc2ccc(C(=O)[O-])cc2)=C2/C=CC(=N2)\C=4c2cccc[n+]2Cc2ccc(C(=O)[O-])cc2)cc1 [Compound 3]
plasma levels of creatine kinase ([1]; 6 mg/kg i.v.): reduced plasma levels of creatine kinase | protective effect ([1]; 6 mg/kg i.v.): significant protective effect | infarct size ([1]; 1, 3, or 6 mg/kg i.v.): effective for reducing infarct size | degree of myocardial hypertrophy [2]: reduced the degree of myocardial hypertrophy | degree of intimal hypertrophy [3]: reduced the degree of intimal hypertrophy | development of endothelial dysfunction [3]: prevented the development of endothelial dysfunction | loss of endothelium-dependent relaxations on the injured side ([3]; FIG. 13): completely prevented this loss of the endothelial function | development of hyperglycemia [4]: prevented the development of hyperglycemia | pancreatic insulin content [4]: normalized pancreatic insulin content | concentration giving protection (RAW murine macrophages): 3 to 100 µM | protection against the suppression of cell viability (RAW murine macrophages): dose-dependently protected | concentration giving protection [5]: 3 to 100 µM | protection against the suppression of cell viability [5]: dose-dependently protected | blood pressure [6]: effective for stabilizing blood pressure | plasma levels of ALT [6]: reduced | plasma levels of creatine kinase [6]: reduced plasma levels of creatine kinase | survival rate [6]: increasing survival rate | degree of myocardial hypertrophy [7]: reduced the degree of myocardial hypertrophy
